Key:
DIPGX29 = H3.3 K27M diffuse intrinsic pontine glioma line; assay: growth inhibition relative to DMSO (0) and positive control (1) (fraction); higher = more growth inhibition
Method: (§1)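 Paxalisib (GDC0084) x mirdametinib (PD0325901) dose matrix on pHGG cell lines and astrocyte controls, 7 days, adherent 384-well. CellTiter-Glo RLU was normalised (no log2) to fractional activity between DMSO (0) and the positive control (1). Each combination was tested in two plate orientations.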

HGGX42 = H3.3 G34R paediatric high-grade glioma line; assay: as above
Method: as §1

O=C(NOC[C@H](O)CO)c1ccc(F)c(F)c1Nc1ccc(I)cc1F + CC1(C)OCCn2c1nc1c(N3CCOCC3)nc(-c3cnc(N)nc3)nc12 [GDC0084]
growth inhibition
Settings | compound 1 concentration 0.009766 µM | compound 1 concentration 0.01953 µM | compound 1 concentration 0.03906 µM | compound 1 concentration 0.07812 µM | compound 1 concentration 0.15625 µM | compound 1 concentration 0.3125 µM | compound 1 concentration 0.625 µM | compound 1 concentration 1.25 µM | compound 1 concentration 5 µM | compound 1 concentration 20 µM
DIPGX29, compound 2 concentration 0.03906 µM | 0.638 | 0.646 | 0.648 | 0.701 | 0.69 | 0.738 | 0.748 | 0.755 | 0.895 | 0.958
DIPGX29, compound 2 concentration 0.07812 µM | 0.15 | 0.207 | 0.157 | 0.241 | 0.208 | 0.306 | 0.424 | 0.498 | 0.796 | 0.919
DIPGX29, compound 2 concentration 0.15625 µM | 0.213 | 0.194 | 0.204 | 0.242 | 0.215 | 0.307 | 0.451 | 0.518 | 0.813 | 0.909
DIPGX29, compound 2 concentration 0.3125 µM | 0.306 | 0.272 | 0.343 | 0.357 | 0.359 | 0.415 | 0.506 | 0.652 | 0.859 | 0.947
DIPGX29, compound 2 concentration 0.625 µM | 0.411 | 0.38 | 0.431 | 0.462 | 0.487 | 0.495 | 0.632 | 0.697 | 0.917 | 0.981
DIPGX29, compound 2 concentration 1.25 µM | 0.531 | 0.526 | 0.609 | 0.603 | 0.627 | 0.625 | 0.79 | 0.803 | 0.952 | 0.985
DIPGX29, compound 2 concentration 5 µM | 0.911 | 0.936 | 0.919 | 0.945 | 0.966 | 0.973 | 0.966 | 0.993 | 0.999 | 1
DIPGX29, compound 2 concentration 20 µM | 0.933 | 0.947 | 0.948 | 0.968 | 0.964 | 0.984 | 0.989 | 0.996 | 1 | 1
HGGX42, compound 2 concentration 0.03906 µM | 0.121 | 0.215 | -0.0211 | 0.146 | -0.0192 | 0.0136 | 0.0247 | 0.074 | 0.354 | 0.554
HGGX42, compound 2 concentration 0.07812 µM | 0.188 | 0.255 | 0.106 | 0.265 | 0.148 | 0.0907 | 0.211 | 0.153 | 0.575 | 0.609
HGGX42, compound 2 concentration 0.15625 µM | 0.307 | 0.29 | 0.478 | 0.322 | 0.224 | 0.377 | 0.32 | 0.341 | 0.477 | 0.686
HGGX42, compound 2 concentration 0.3125 µM | 0.494 | 0.466 | 0.484 | 0.515 | 0.431 | 0.424 | 0.294 | 0.326 | 0.507 | 0.716
HGGX42, compound 2 concentration 0.625 µM | 0.673 | 0.632 | 0.625 | 0.647 | 0.57 | 0.606 | 0.602 | 0.528 | 0.674 | 0.8
HGGX42, compound 2 concentration 1.25 µM | 0.782 | 0.743 | 0.746 | 0.753 | 0.748 | 0.706 | 0.723 | 0.703 | 0.803 | 0.895
HGGX42, compound 2 concentration 5 µM | 0.875 | 0.86 | 0.872 | 0.883 | 0.882 | 0.872 | 0.881 | 0.876 | 0.93 | 0.979
HGGX42, compound 2 concentration 20 µM | 0.898 | 0.898 | 0.901 | 0.911 | 0.908 | 0.899 | 0.907 | 0.908 | 0.956 | 0.986

CC1(C)OCCn2c1nc1c(N3CCOCC3)nc(-c3cnc(N)nc3)nc12 [GDC0084] + O=C(NOC[C@H](O)CO)c1ccc(F)c(F)c1Nc1ccc(I)cc1F [PD0325901]
growth inhibition
Settings | compound 1 concentration 0.009766 µM | compound 1 concentration 0.01953 µM | compound 1 concentration 0.03906 µM | compound 1 concentration 0.07812 µM | compound 1 concentration 0.15625 µM | compound 1 concentration 0.3125 µM | compound 1 concentration 0.625 µM | compound 1 concentration 1.25 µM | compound 1 concentration 5 µM | compound 1 concentration 20 µM
DIPGX29, compound 2 concentration 0.03906 µM | 0.0494 | 0.0257 | 0.0988 | 0.197 | 0.244 | 0.304 | 0.508 | 0.598 | 0.891 | 0.96
DIPGX29, compound 2 concentration 0.07812 µM | 0.246 | 0.221 | 0.24 | 0.295 | 0.368 | 0.426 | 0.565 | 0.653 | 0.915 | 0.964
DIPGX29, compound 2 concentration 0.15625 µM | 0.138 | 0.16 | 0.18 | 0.286 | 0.308 | 0.402 | 0.515 | 0.704 | 0.92 | 0.97
DIPGX29, compound 2 concentration 0.3125 µM | 0.198 | 0.252 | 0.293 | 0.316 | 0.389 | 0.507 | 0.616 | 0.696 | 0.949 | 0.981
DIPGX29, compound 2 concentration 0.625 µM | 0.331 | 0.369 | 0.463 | 0.439 | 0.481 | 0.54 | 0.619 | 0.781 | 0.967 | 0.993
DIPGX29, compound 2 concentration 1.25 µM | 0.511 | 0.539 | 0.543 | 0.583 | 0.62 | 0.67 | 0.806 | 0.869 | 0.983 | 0.999
DIPGX29, compound 2 concentration 5 µM | 0.801 | 0.807 | 0.824 | 0.837 | 0.855 | 0.88 | 0.924 | 0.956 | 0.997 | 0.997
DIPGX29, compound 2 concentration 20 µM | 0.903 | 0.914 | 0.9 | 0.927 | 0.923 | 0.969 | 0.97 | 0.989 | 1 | 1
HGGX42, compound 2 concentration 0.03906 µM | -0.12 | -0.197 | 0.0384 | 0.0281 | 0.284 | 0.461 | 0.656 | 0.736 | 0.874 | 0.903
HGGX42, compound 2 concentration 0.07812 µM | -0.0889 | -0.0669 | -0.00719 | 0.153 | 0.248 | 0.404 | 0.631 | 0.729 | 0.855 | 0.919
HGGX42, compound 2 concentration 0.15625 µM | -0.145 | -0.107 | -0.0597 | 0.0866 | 0.181 | 0.411 | 0.625 | 0.714 | 0.835 | 0.915
HGGX42, compound 2 concentration 0.3125 µM | -0.136 | 0.0502 | -0.0893 | 0.0398 | 0.184 | 0.318 | 0.582 | 0.644 | 0.788 | 0.89
HGGX42, compound 2 concentration 0.625 µM | -0.166 | -0.0808 | -0.0757 | 0.0763 | 0.176 | 0.471 | 0.532 | 0.677 | 0.822 | 0.896
HGGX42, compound 2 concentration 1.25 µM | -0.0698 | -0.0338 | -0.0377 | 0.08 | 0.227 | 0.394 | 0.576 | 0.727 | 0.866 | 0.908
HGGX42, compound 2 concentration 5 µM | 0.307 | 0.337 | 0.354 | 0.431 | 0.481 | 0.564 | 0.688 | 0.774 | 0.907 | 0.95
HGGX42, compound 2 concentration 20 µM | 0.486 | 0.554 | 0.507 | 0.615 | 0.653 | 0.772 | 0.853 | 0.913 | 0.975 | 0.985

Source: the supplement of paper PMC8253809
